Reference: patent US5268465A, “Purification and molecular cloning of nitric oxide synthase” (The Johns Hopkins University, priority 1991, dated 1993)

Key:
[1] = target: T1, NO synthase (Rattus norvegicus, UniProt P0DP29+P29476); test: NO synthase activity, conversion of [3H]arginine to [3H]citrulline, purified enzyme; format: biochemical; details: for EC50: read-out: EC50 for enhancement/stimulation of enzyme activity; for IC50: read-out: Calmodulin antagonists, IC50
[2] = target: T2, NO synthase activity in crude brain supernatant preparations (Rattus norvegicus, UniProt P29476); test: NO synthase activity, conversion of [3H]arginine to [3H]citrulline, crude cerebellar/brain supernatant preparations; format: biochemical
T2 construct: not recombinant
Procedure: (§1) This example describes the method by which NOS activity was assayed. […] After incubation for 5 min at 22° C., assays were terminated with 2 ml of 20 mM Hepes, pH 5.5/2 mM EDTA, and were applied to 1-ml columns of Dowex A[…]-8 (Na^+ form), which were eluted with 2 ml of water. [^3 H]Citrulline was quantified by liquid scintillation spectroscopy of the 4-ml flow-through.

[3] = target: T1, NO synthase; test: Effects of varying calcium, calmodulin and NADPH on NO synthase activity; format: biochemical
Procedure: After incubation for 5 min at 22° C., assays were terminated with 2 ml of 20 mM Hepes, pH 5.5/2 mM EDTA, and were applied to 1-ml columns of Dowex A[…]-8 (Na^+ form), which were eluted with 2 ml of water. [^3 H]Citrulline was quantified by liquid scintillation spectroscopy of the 4-ml flow-through.

[4] = target: NO synthase activity in crude brain supernatant preparations (Rattus norvegicus, UniProt P0DP29); test: NO synthase activity, conversion of [3H]arginine to [3H]citrulline, crude cerebellar/brain supernatant preparations; format: biochemical; details: crude brain supernatant preparations; read-out: IC50, inhibition of NO synthase activity
Procedure: as §1

[5] = target: T3, NO synthase (Rattus norvegicus, UniProt P29476); test: Restoration of enzyme activity of DEAE eluate fractions; format: biochemical
T3 construct: Eighteen rat cerebella were homogenized; from tissue; host or cells: rat cerebella (supernatant, DEAE eluate, 2',5'-ADP agarose eluate)
Procedure: Eighteen rat cerebella were homogenized in 100 ml of ice-cold buffer A [50 mM Tris-HCl, pH 7.4/1 mM EDTA/antipain (10 mg/liter)/leupeptin (10 mg/liter)/soybean trypsin inhibitor (10 mg/liter)/pepstatin (10 mg/liter)/chymostatin (10 mg/liter)/phenylmethylsulfonyl fluoride (100 mg/liter)], and all subsequent procedures were carried out at 4° C. The homogenate was centrifuged at 20,000×g for 15 min, and the supernatant was loaded at 2 ml/min onto a 20-ml column of diethylminoethyl (DEAE) equilibrated with buffer A. The column was washed with 50 ml of buffer A and eluted with a 100-ml linear gradient of 0-400 mM NaCl in buffer A. Fractions (2.5 ml) were assayed for enzyme activity.
In our preliminary efforts to purify NO synthase, we observed that enzymatic activity adheres to a DEAE column and can be eluted by 1M NaCl. […] Since NO formation requires Ca^2+, we speculated that calmodulin might be involved. […] NO synthase activity elutes in one sharp, major peak followed by a smaller peak of activity, which is observed reproducibly in multiple experiments.

[6] = target: T3, NO synthase; test: Storage stability of NO synthase activity; format: physicochemical
Procedure: After incubation for 5 min at 22° C., assays were terminated with 2 ml of 20 mM Hepes, pH 5.5/2 mM EDTA, and were applied to 1-ml columns of Dowex AG502X-8 (Na^+ form), which were eluted with 2 ml of water. [^3 H]Citrulline was quantified by liquid scintillation spectroscopy of the 4-ml flow-through.
The purified enzyme is unstable. When stored at 0° C., 50% of the enzyme activity is lost in 2 hr, whereas the crude supernatant preparation loses 50% activity at 0° C. in 2 days. Stability is enhanced by storing the enzyme in bovine serum albumin (1 mg/ml)/20% (vol/vol) glycerol at -70° C. When stored in this way, the enzyme loses<50%activity in 7 days.

[7] = target: T3, NO synthase; test: Specific activity of fractions during purification of NO synthase; format: biochemical; details: typical purification, repeated five times
Procedure: After a 10-min incubation, the suspension was poured into a fritted column, which was washed with 50 ml of buffer B with 0.5M NaCl and then with 20 ml of buffer B alone.
Enzyme was purified and fractions were assayed as described.

T1 sequence (P29476 whole entry, one chain of several): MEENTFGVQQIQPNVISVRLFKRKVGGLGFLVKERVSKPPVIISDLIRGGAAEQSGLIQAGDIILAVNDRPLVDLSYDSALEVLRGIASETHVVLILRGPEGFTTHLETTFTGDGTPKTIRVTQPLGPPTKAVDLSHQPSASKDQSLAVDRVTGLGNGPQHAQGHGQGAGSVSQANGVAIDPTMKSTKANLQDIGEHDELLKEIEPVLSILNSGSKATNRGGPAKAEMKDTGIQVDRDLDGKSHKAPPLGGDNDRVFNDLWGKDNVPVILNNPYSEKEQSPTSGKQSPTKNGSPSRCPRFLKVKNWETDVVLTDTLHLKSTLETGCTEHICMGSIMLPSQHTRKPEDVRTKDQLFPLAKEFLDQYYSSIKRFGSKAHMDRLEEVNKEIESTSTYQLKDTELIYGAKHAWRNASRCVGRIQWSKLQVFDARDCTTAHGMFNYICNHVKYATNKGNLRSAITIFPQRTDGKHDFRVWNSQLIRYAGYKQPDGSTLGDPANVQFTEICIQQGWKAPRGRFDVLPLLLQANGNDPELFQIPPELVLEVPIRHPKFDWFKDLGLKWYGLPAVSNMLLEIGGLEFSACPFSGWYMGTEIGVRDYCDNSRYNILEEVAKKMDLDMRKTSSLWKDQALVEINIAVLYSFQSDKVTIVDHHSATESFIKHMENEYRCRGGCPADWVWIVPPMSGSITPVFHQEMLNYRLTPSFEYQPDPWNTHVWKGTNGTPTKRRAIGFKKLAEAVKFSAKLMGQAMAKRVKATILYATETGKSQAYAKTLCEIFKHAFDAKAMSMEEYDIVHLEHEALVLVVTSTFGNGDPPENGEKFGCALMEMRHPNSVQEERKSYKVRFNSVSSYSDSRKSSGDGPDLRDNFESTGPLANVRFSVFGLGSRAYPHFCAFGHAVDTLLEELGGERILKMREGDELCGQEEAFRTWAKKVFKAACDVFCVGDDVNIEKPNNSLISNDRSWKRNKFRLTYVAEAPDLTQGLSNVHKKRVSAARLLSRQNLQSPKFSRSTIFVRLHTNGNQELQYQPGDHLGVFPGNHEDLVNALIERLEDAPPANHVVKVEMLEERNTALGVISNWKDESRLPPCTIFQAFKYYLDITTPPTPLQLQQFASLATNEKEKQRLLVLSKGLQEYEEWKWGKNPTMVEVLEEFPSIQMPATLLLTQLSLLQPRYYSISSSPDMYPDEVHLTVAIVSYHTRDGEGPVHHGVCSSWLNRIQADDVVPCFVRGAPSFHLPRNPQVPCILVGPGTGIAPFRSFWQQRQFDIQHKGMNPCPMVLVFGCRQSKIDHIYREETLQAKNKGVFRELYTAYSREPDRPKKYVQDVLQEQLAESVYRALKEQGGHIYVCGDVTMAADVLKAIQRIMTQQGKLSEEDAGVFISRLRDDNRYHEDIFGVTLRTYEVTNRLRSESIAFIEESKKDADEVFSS

[Ca+2] [Ca^2+, calcium]
EC50 [1]: 0.2 µM | EC50 compared with crude preparations ([2]; crude preparations): the same in the pure and crude preparations | Concentration of maximal enhancement of activity [3]: 1 µM | Stimulation in the absence of NADPH ([3]; absence of NADPH): fails to stimulate NO synthase activity | Activity at high Ca2+ ([3]; concentrations exceeding 100 μM Ca2+): some reduction in activity

NCCCCCCNS(=O)(=O)c1cccc2ccccc12 [W-5]
IC50 [1]: 25 µM | IC50 [4]: 50 µM

NCCCCNS(=O)(=O)c1ccc2c(Cl)cccc2c1 [W-13]
IC50 [1]: 70 µM | IC50 [4]: 25 µM

Calmodulin
EC50 [1]: 0.01 µM | Effect of addition to DEAE eluate fractions on enzyme activity [5]: restores enzyme activity | Influence of added calmodulin on enzyme activity ([2]; crude cerebellar supernatant preparations, calmodulin 1 μM): no influence on enzyme activity | Effect on stability of the enzyme ([6]; presence of calmodulin): Stability is also enhanced | Stimulation of NO synthase activity ([3]; FIG. 2A): extremely potent stimulator of NO synthase activity

NO synthase: calmodulin-dependent nitric oxide synthase purified to homogeneity from rat cerebella by DEAE and 2',5'-ADP agarose chromatography
Specific activity [7]: 960 nmol/mg/min | Vmax ([1]; Table 2): 0.96 μmol per min per mg of protein | Enzyme activity lost on storage ([6]; bovine serum albumin (1 mg/ml)/20% (vol/vol) glycerol at -70° C., 7 days): < 50% | Time to loss of 50% of the enzyme activity ([6]; stored at 0° C.): 2 h
